Results: patent publication US10772893B2, “2-(morpholin-4-yl)-1,7-naphthyridines” (BAYER PHARMA AKTIENGESELLSCHAFT, priority 2014, dated 2020)
Read-outs that look alike come from different tables or passages of the source.

How the values were obtained:
human ATR = human ATR (Homo sapiens (Human), UniProt Q13535); test: ATR binding assay (TR-FRET, displacement of fluorescent tracer A or B)
HeLa cells = test: Proliferation assay, crystal violet staining; settings: Homo sapiens, 96 h
Caco-2 cells = test: Proliferation assay, crystal violet staining; type: cell-based; settings: Homo sapiens, Caco-2, 96 h, 4 days incubation, read-out: Inhibition of Caco-2 cell proliferation
Experimental: (§1) After 24 hours, the cells of one plate (zero plate) were dyed with crystal violet (see below), whereas the medium of the other plates was replaced with fresh culture medium (200 μl) to which the test substances were added in various concentrations (0 μM, and also in the range of 0.001-10 μM; the final concentration of the solvent dimethyl sulphoxide was 0.1 or 0.5%). The cells were incubated for 4 days in the presence of the test substances. […] After washing the fixed cells three times with water, the plates were dried at room temperature. The cells were stained by adding 100 μl/measurement point of a 0.1% strength crystal violet solution (pH adjusted to pH 3 by adding acetic acid). After washing the cells three times with water, the plates were dried at room temperature. The dye was dissolved by adding 100 μl/measurement point of a 10% strength acetic acid solution. […] The percentage change in cell growth was calculated by normalizing the measured values to the absorbance values of the zero plate (=0%) and the absorbance of the untreated (0 W) cells (=100%). The IC50 values were determined by means of a four parameter fit.

NCI-H460 cells = test: Proliferation assay, crystal violet staining; settings: Homo sapiens, NCI-H460, 96 h, read-out: Inhibition of NCI-H460 cell proliferation, NCI-H460 cells, 4 days incubation
Experimental: as §1

HeLa-MaTu-ADR cells = test: Proliferation assay, crystal violet staining; type: cell-based; settings: Homo sapiens, 96 h, 4 days incubation, read-out: Inhibition of HeLa-MaTu-ADR cell proliferation
Experimental: as §1

DU145 cells = test: Proliferation assay, crystal violet staining; settings: Homo sapiens, DU-145, 96 h, read-out: Inhibition of DU145 cell proliferation, DU145 cells, 4 days incubation
Experimental: as §1

B16F10 cells = test: Proliferation assay, crystal violet staining; settings: B16-F10, 96 h, read-out: Inhibition of B16F10 cell proliferation
Experimental: Human tumour cells (Table 8) were originally obtained from the American Type Culture Collection (ATCC), the Deutsche Sammlung von Mikroorganismen and Zellkulturen (DSMZ, German Collection of Microorganisms and Cell Cultures), or Epo GmbH Berlin. […] After 24 hours, the cells of one plate (zero plate) were dyed with crystal violet (see below), whereas the medium of the other plates was replaced with fresh culture medium (200 μl) to which the test substances were added in various concentrations (0 μM, and also in the range of 0.001-10 μM; the final concentration of the solvent dimethyl sulphoxide was 0.1 or 0.5%). The cells were incubated for 4 days in the presence of the test substances. […] After washing the fixed cells three times with water, the plates were dried at room temperature. The cells were stained by adding 100 μl/measurement point of a 0.1% strength crystal violet solution (pH adjusted to pH 3 by adding acetic acid). After washing the cells three times with water, the plates were dried at room temperature. The dye was dissolved by adding 100 μl/measurement point of a 10% strength acetic acid solution. […] The percentage change in cell growth was calculated by normalizing the measured values to the absorbance values of the zero plate (=0%) and the absorbance of the untreated (0 W) cells (=100%). The IC50 values were determined by means of a four parameter fit.

[1] = read-out: Inhibition of HeLa cell proliferation, HeLa cells, 4 days incubation

human ATR, sequence (Q13535 other isoform, or with tags, fused parts or gaps): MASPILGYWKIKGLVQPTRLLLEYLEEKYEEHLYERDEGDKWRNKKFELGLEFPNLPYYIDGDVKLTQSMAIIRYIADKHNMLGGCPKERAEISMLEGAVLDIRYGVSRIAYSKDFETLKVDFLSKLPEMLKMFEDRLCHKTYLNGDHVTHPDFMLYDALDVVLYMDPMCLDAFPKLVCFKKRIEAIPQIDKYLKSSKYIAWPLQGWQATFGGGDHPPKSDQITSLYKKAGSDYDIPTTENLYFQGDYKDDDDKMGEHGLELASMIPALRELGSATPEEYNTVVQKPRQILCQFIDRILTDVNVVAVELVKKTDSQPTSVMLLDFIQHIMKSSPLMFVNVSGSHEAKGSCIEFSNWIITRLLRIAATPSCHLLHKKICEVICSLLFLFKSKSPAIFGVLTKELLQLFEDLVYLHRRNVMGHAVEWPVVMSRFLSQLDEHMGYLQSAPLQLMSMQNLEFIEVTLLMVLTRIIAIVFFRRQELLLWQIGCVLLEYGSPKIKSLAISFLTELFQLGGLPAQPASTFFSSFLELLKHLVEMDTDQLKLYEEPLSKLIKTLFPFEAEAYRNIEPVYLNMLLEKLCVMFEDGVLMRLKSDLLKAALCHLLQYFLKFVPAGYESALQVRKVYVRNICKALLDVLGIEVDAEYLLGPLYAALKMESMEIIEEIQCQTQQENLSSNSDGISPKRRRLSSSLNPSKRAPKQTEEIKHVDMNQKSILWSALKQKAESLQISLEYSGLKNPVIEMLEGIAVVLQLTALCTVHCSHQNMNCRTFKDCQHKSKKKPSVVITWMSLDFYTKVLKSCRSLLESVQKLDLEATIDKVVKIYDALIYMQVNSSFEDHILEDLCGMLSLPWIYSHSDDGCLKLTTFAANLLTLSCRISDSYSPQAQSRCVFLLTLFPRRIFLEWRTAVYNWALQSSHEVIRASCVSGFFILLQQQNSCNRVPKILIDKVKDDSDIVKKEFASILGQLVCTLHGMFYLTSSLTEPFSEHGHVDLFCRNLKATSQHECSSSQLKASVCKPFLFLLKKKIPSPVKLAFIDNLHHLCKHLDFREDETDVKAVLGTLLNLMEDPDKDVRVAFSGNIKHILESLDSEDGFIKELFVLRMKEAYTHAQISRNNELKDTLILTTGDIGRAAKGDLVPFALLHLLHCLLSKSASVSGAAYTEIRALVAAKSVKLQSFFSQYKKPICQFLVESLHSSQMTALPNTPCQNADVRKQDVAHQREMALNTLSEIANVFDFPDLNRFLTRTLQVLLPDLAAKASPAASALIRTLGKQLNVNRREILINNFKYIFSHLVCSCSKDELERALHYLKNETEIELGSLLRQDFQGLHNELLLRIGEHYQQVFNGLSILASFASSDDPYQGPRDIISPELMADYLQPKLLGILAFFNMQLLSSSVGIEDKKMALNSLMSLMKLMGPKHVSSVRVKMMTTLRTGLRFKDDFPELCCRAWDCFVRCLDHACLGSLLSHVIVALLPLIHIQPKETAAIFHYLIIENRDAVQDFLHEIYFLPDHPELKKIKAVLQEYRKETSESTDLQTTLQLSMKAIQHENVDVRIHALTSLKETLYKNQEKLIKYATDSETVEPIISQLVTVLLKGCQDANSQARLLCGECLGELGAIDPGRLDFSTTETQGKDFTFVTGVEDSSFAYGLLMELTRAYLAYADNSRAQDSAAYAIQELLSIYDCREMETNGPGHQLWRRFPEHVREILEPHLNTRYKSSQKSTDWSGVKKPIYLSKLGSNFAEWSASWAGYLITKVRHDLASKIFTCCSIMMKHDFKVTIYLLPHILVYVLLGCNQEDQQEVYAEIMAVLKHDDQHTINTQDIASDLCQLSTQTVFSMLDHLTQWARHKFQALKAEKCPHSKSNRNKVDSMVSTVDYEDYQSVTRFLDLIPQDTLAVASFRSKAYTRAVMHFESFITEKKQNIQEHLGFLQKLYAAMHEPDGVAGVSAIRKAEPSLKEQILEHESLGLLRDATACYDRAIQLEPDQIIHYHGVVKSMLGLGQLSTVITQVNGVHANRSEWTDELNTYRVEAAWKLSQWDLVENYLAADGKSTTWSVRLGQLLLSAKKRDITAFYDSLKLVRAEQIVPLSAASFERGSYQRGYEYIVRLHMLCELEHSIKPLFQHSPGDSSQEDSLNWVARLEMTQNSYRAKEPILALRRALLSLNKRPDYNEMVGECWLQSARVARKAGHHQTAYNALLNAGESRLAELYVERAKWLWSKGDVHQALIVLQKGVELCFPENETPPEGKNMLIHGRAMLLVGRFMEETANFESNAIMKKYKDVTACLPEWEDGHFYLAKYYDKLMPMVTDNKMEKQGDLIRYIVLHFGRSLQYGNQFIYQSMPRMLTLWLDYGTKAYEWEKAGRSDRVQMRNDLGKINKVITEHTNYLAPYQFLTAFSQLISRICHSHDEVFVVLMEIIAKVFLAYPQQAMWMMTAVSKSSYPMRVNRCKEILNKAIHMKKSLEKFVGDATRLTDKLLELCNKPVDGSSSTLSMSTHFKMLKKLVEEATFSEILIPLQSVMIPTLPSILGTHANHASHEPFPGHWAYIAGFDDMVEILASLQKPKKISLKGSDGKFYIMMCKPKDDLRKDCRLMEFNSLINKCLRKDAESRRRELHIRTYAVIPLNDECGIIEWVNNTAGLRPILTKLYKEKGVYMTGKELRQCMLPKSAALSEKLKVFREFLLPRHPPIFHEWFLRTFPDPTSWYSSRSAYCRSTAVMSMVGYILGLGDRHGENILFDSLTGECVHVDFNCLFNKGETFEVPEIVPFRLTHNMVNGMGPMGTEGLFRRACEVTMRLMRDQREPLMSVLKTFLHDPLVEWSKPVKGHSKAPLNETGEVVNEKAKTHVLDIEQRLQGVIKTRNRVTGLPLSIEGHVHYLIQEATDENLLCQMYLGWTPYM
human ATR, sequence (Q8WXE1 other isoform, or with tags, fused parts or gaps partner): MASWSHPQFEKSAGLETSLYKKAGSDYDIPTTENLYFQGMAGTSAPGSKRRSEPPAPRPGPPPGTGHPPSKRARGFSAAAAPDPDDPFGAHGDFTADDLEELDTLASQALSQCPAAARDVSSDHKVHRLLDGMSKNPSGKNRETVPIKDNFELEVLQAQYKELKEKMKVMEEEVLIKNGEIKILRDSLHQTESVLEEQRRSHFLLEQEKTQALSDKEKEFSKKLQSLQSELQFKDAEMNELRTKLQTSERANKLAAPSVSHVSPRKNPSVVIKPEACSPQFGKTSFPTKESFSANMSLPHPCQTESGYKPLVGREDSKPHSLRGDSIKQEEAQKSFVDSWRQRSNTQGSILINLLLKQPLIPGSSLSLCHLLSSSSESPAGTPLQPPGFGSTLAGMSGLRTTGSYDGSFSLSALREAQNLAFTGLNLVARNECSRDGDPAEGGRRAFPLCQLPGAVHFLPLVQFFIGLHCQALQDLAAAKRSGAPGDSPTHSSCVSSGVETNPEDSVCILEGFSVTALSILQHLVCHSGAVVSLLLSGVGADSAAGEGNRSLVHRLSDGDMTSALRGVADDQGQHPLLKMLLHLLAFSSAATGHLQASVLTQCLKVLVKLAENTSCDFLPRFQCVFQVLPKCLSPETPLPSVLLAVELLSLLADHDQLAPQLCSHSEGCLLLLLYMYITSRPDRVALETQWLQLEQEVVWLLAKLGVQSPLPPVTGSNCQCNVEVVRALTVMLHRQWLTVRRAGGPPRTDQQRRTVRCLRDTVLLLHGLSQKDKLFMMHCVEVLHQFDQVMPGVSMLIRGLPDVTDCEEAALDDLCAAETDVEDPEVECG

| IC50 (HeLa cells; [1]) [nM] | IC50 (Caco-2 cells) [nM] | IC50 (NCI-H460 cells) [nM] | IC50 (HeLa-MaTu-ADR cells) [nM] | IC50 (DU145 cells) [nM] | SMILES | IC50 (human ATR) [nM] | IC50 (HeLa cells; read-out: Inhibition of HeLa cell proliferation) [nM] | IC50 (B16F10 cells) [nM] |
| --- | --- | --- | --- | --- | --- | --- | --- | --- |
|  |  |  |  |  | CC(C)S(=O)(=Nc1cc(N2CCOC[C@H]2C)nc2c(-c3ccn[nH]3)nccc12)c1ccc(Br)cc1 (some centres unmarked) [Example 275] | 304 |  |  |
|  |  |  |  |  | CC1(C)C[C@@H]2C[C@@](C)(CN2c2cc(N3CCOCC3)nc3c(-c4ccn[nH]4)nccc23)C1 (stereo in doubt) [Example 421, 2-(morpholin-4-yl)-8-(1H-pyrazol-5-yl)-4-[1,3,3-trimethyl-6-azabicyclo[3.2.1]oct-6-yl]-1,7-naphthyridine] | 1790 |  |  |
| 613 | 822 | 399 | 940 | 518 | Cn1nccc1-c1cc(N2CCOCC2)nc2c(-c3ccn[nH]3)nccc12 [Example 348, 4-(1-methyl-1H-pyrazol-5-yl)-2-(morpholin-4-yl)-8-(1H-pyrazol-5-yl)-1,7-naphthyridine] |  |  |  |
| 248 | 492 | 90.6 | 522 | 30.5 | C[C@@H]1COCCN1c1cc(N2CCOCC2)c2ccnc(-c3ccn[nH]3)c2n1 [Example 145, 2-[(3R)-3-methylmorpholin-4-yl]-4-(morpholin-4-yl)-8-(1H-pyrazol-5-yl)-1,7-naphthyridine] |  |  |  |
| 394 | 577 | 243 | 498 | 291 | C[C@@H]1COCCN1c1cc(C2CC2)c2ccnc(-c3cc[nH]n3)c2n1 [Example 29] |  |  |  |
| 496 | 1460 | 447 | 1300 | 827 | C=C(C)c1cc(N2CCOCC2)nc2c(-c3cc[nH]n3)nccc12 [Example 10, 4-Isopropenyl-2-(morpholin-4-yl)-8-(1H-pyrazol-3-yl)-[1,7]naphthyridine] |  |  |  |
| 1020 | 869 | 291 | > 3000 | 144 | CC(C)[S+]([O-])c1cc(N2CCOCC2)nc2c(-c3ccn[nH]3)nccc12 (centres unmarked) [Example 196, 2-(morpholin-4-yl)-4-[propan-2-ylsulfinyl]-8-(1H-pyrazol-5-yl)-1,7-naphthyridine] |  |  |  |
| 1230 | 2930 | 391 | 1800 | 895 | CC(C)Oc1cc(N2CCOC[C@H]2C)nc2c(-c3cc[nH]n3)nccc12 [Example 51, 4-Isopropoxy-2-((R)-3-methylmorpholin-4-yl)-8-(1H-pyrazol-3-yl)-[1,7]naphthyridine] |  |  |  |
| 1410 | 1720 | 528 | > 3000 | 817 | CS(=O)(=O)c1cccc(-c2cc(N3CCOCC3)nc3c(-c4cc[nH]n4)nccc23)c1 [Example 15, 4-(3-methanesulphonylphenyl)-2-(morpholin-4-yl)-8-(1H-pyrazol-3-yl)-[1,7]naphthyridine] |  |  |  |
| 157 | 286 | 81.7 | 291 | 104 | Cc1ccc(-c2cc(N3CCOC[C@H]3C)nc3c(-c4ccn[nH]4)nccc23)cn1 [Example 88, 2-[(3R)-3-methylmorpholin-4-yl]-4-(6-methylpyridin-3-yl)-8-(1H-pyrazol-5-yl)-1,7-naphthyridine] |  |  |  |
| 170 | 340 | 88.4 | 595 | 94 | CCS(=O)(CC)=Nc1cc(N2CCOC[C@H]2C)nc2c(-c3ccn[nH]3)nccc12 [Example 126, 4-{[diethyl(oxido)-λ^6-sulfanylidene]amino}-2-[(3R)-3-methylmorpholin-4-yl]-8-(1H-pyrazol-5-yl)-1,7-naphthyridine] |  |  |  |
| 512 | 2890 | 293 | > 3000 | 325 | C[C@@H]1COCCN1c1cc(-c2ccc(S(C)(=N)=O)cc2)c2ccnc(-c3ccn[nH]3)c2n1 (stereo partly drawn) [Example 30, 4-[2-((R)-3-methylmorpholin-4-yl)-8-(2H-pyrazol-3-yl)-[1,7]naphthyridine-4-yl]phenyl-S-methylsulphoximide] |  |  |  |
| 872 | > 3000 | > 3000 | > 3000 | > 3000 | C[C@@H]1COCCN1c1cc(N2CCN(C)C(=O)C2)c2ccnc(-c3ccn[nH]3)c2n1 [Example 157, 1-methyl-4-{2-[(3R)-3-methylmorpholin-4-yl]-8-(1H-pyrazol-5-yl)-1,7-naphthyridin-4-yl}piperazin-2-one] |  |  |  |

| SMILES | IC50 (HeLa cells; [1]) [nM] | IC50 (Caco-2 cells) [nM] | IC50 (NCI-H460 cells) [nM] | IC50 (HeLa-MaTu-ADR cells) [nM] | IC50 (DU145 cells) [nM] | IC50 (human ATR) [nM] | IC50 (HeLa cells; read-out: Inhibition of HeLa cell proliferation) [nM] | IC50 (B16F10 cells) [nM] |
| --- | --- | --- | --- | --- | --- | --- | --- | --- |
| CCOP(C)(=O)c1cc(N2CCOC[C@H]2C)nc2c(-c3ccn[nH]3)nccc12 (stereo partly drawn) [Example 125, ethyl methyl{2-[(3R)-3-methylmorpholin-4-yl]-8-(1H-pyrazol-5-yl)-1,7-naphthyridin-4-yl}phosphinate] |  | > 3000 |  | > 3000 | 712 |  | 705 | > 3000 |
